In one experiment the target is T1, Endothelin-converting enzyme 1 (Rattus norvegicus, UniProt P42893).
T1 sequence (P42893 whole entry): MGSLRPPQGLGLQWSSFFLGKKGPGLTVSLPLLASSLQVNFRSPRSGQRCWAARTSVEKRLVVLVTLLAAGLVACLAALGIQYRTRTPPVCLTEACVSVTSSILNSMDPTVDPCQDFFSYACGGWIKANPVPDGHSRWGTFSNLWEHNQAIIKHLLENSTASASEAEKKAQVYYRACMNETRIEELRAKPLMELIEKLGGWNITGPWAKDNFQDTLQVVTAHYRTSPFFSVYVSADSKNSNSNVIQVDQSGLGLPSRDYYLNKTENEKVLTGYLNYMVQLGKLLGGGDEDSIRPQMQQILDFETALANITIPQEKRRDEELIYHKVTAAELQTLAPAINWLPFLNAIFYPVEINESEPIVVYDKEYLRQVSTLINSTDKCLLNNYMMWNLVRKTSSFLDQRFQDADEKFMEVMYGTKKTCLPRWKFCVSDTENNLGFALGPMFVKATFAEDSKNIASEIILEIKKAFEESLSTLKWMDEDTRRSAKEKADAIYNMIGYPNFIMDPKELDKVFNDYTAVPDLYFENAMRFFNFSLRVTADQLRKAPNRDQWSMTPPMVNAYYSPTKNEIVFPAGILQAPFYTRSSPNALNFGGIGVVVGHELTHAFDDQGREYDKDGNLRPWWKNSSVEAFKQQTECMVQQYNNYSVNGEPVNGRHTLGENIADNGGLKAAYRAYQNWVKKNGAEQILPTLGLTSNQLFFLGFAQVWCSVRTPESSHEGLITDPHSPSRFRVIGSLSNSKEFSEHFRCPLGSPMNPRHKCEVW
The experiment can be described thus: Tested in vitro for inhibition of Endothelin-converting enzyme (ECE) of rat lung membrane. It is filed as tissue-based.
For the molecule `CC(C)(C)c1ccc(N/N=C(\N=N\c2nnnn2-c2ccccc2)c2ccccc2)cc1`, the 50% inhibitory concentration (IC50) came to 3.8 µM.

`Cc1nn(-c2ccccc2)c(NC(=O)NS(=O)(=O)c2ccc(Cl)cc2)c1C#N` displayed a concentration for half-maximal inhibition (IC50) of 0.042 µM.

In turn, `Cc1ccc(N/N=C(\N=N\c2nnnn2-c2ccccc2)c2ccccc2)cc1` displayed an IC50 of 8.4 µM.

As to `CC(C)c1ccc(N/N=C(\N=N\c2nnnn2-c2ccccc2)c2ccccc2)cc1`, the midpoint of inhibition, the IC50, lay at 3.4 µM.

Consider `CCC(C)c1ccc(N/N=C(\N=N\c2nnnn2-c2ccccc2)c2ccccc2)cc1` (stereo not given), for which half-maximal inhibition (IC50) required 2.7 µM.

With `CCc1ccc(N/N=C(\N=N\c2nnnn2-c2ccccc2)c2ccccc2)cc1`, the IC50 turned out to be 3.8 µM.

In turn, `c1ccc(C(=N/Nc2ccc(C3CCCCC3)cc2)/N=N/c2nnnn2-c2ccccc2)cc1` yielded an IC50 of 3.6 µM. The IC50 values of the last two molecules are within 1.5-fold of each other.

As for `c1ccc(N/N=C(\N=N\c2nnnn2-c2ccccc2)c2ccccc2)cc1`, the midpoint of inhibition, the IC50, lay at 10 µM.

`CCCc1ccc(N/N=C(\N=N\c2nnnn2-c2ccccc2)c2ccccc2)cc1`: the IC50 came out at 2.6 µM.

The next experiment deals with T2, Endothelin-converting enzyme 1 (Rattus norvegicus) (UniProt P42893).
T2 sequence (whole entry): T1 sequence (P42893 whole entry)
The experiment can be described thus: Tested in vitro for percent inhibition of Endothelin-converting enzyme (ECE) of rat lung membrane at 10 uM. It is filed as tissue-based.
In the case of `Clc1ccc(N/N=C(\N=N\c2nnnn2-c2ccccc2)c2ccccc2)cc1`, the inhibition was 37%.

In general, IC50 refers to the concentration needed to halve the response being measured. Low values mean greater potency, high ones weaker potency. The term inhibition denotes the relative decrease from the control value, in per cent. Higher therefore signals a response far below the control.

Source of the values: ChEMBL document CHEMBL1135299, “Design, synthesis and biological activity of novel non-peptidyl endothelin converting enzyme inhibitors, 1-phenyl-tetrazole-formazan analogues” (Bioorg Med Chem Lett, 2002).
